The values below come from patent US20220169639A1 (priority 2018, published 2022).

pIC50: −log10 of the molar value.

For experiment [1], the system named is HBV (HBsAg) in HBV-infected PHH. The experiment in a line: Cryopreserved primary human hepatocytes (PHH) HBV infection assay, extracellular HBsAg (CLIA). Type of experiment: cell-based. To be noted: Hepatitis B virus, Hepatocyte, 216 h, read-out: HBsAg IC50. On the procedure:
This assay is used to confirm the anti-HBV effect of the compounds in HBV PHH infection assay. Cryopreserved PHH (BioreclamationIVT, Lot YJM) was thawed at 37° C. and gently transferred into pre-warmed InVitroGRO HT medium (BioreclamationIVT, Cat. S03317). The mixture was centrifuged at 70 relative centrifugal force (RCF) for 3 minutes at RT, and the supernatant was discarded. Pre-warmed InVitroGRO CP medium (BioreclamationIVT, Cat #S03316) was added to the cell pellet to gently re-suspend cells. The cells were seeded at the density of 5.8×10^4 cells per well to collagen I coated 96-well plate (Gibco, Cat. A1142803) with the InVitroGRO CP medium. All plates were incubated at 37° C. with 5% CO2 and 85% humidity.
At 20 hours after plating, the medium was changed to PHH culture medium (Dulbecco's Modified Eagle Medium (DMEM)/F12 (1:1) (Gibco, Cat. 11320-033), 10% fetal bovine serum (Gibco Cat. 10099141), 100 U/mL penicillin, 100 μg/mL streptomycin (Gibco, Cat. 151401-122), 5 ng/mL human epidermal growth factor (Invitrogen Cat. PHG0311L), 20 ng/mL dexamethasone (Sigma, Cat. D4902) and 250 ng/mL human recombinant insulin (Gibco, Cat. 12585-014)). And the cells were incubated at 37° C. with 5% CO2 and 85% humidity for 4 hours. The medium was then changed to pre-warmed PHH culture medium containing 4% polyethylene glycol (PEG) MW8000 (Sigma, Cat. P1458-50ML) and 1% DMSO (Sigma, Cat. D2650). 5.8×10^6 genomic equivalents of HBV were added into the medium.
At 24 hours post-infection, the cells were gently washed with PBS and refreshed with PHH culture medium supplemented with 1% DMSO, and 0.25 mg/mL Matrix gel (Corning, Cat. 356237) at 200 μL per well. All plates were immediately placed in at 37° C. CO2 incubator. 24 hours later, serial dilutions of compounds made with DMSO were further diluted with the same culture medium (PHH culture medium supplemented with 1% DMSO and 0.25 mg/mL Matrix gel as described above) before they were added to the cells to reach desired final compound concentrations and 1% DMSO concentration. The medium containing the compounds were refreshed every three days.
At 9 days post-compound treatment, extracellular HBsAg level were measured with Chemiluminescence Immuno Assay (CLIA) kit (Autobio, HBsAg Quantitative CLIA). Extracellular HBV DNA was extracted by MagNA Pure 96 system (Roche) and then determined
HBsAg IC50 and HBV DNA IC50 values were derived from the dose-response curve using 4 parameter logistic curve fit method. The compounds of formula (I) have HBsAg IC50<20 μM, particularly <1 μM; and HBV DNA IC50<50 μM. Results of Cryopreserved PHH assay are given in TableBIO2.

Experiment [2] concerns HBeAg (surrogate marker for cccDNA) in HepDES19 cells. Briefly: Engineered HepDES19 primary screen assay (HBeAg ELISA). Type of experiment: cell-based, HBV. The conditions noted are these: Hepatitis B virus, 120 h, HBeAg in culture supernatant, 5 days incubation, read-out: IC50 (HepDES19 primary screen assay, inhibition of extracellular HBeAg level). Put shortly: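 HepDES19 cells pre-induced by Tet withdrawal for 8 days, frozen, then seeded and dosed after 24 h with half-log compound dilutions (1% DMSO final). After 5 days at 37 °C, HBeAg measured by ELISA and viability by CCK-8; IC50 from 4-parameter logistic fit.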
For orientation: An ELISA detects its analyte on a solid surface through an enzyme-linked reagent.

What is called pIC50 is the IC50 on a negative log10 scale, so that one unit is a factor of ten. Consider `O=C(O)[C@@H]1CCN(CCOc2cc(Br)ccc2-c2cc(=O)c3c(C(F)(F)F)ccc(Cl)c3o2)C1` [Example 041, (3R)-1-[2-[5-bromo-2-[8-chloro-4-oxo-5-(trifluoromethyl)chromen-2-yl]phenoxy]ethyl]pyrrolidine-3-carboxylic acid], for which the pIC50 in experiment [1] is 5.26; in experiment [2] it was 7.52.
Turning to `O=C(O)[C@H]1CCN(CCOc2cc(Br)ccc2-c2cc(=O)c3c(C(F)(F)F)ccc(Cl)c3o2)C1` [Example 042, (3S)-1-[2-[5-bromo-2-[8-chloro-4-oxo-5-(trifluoromethyl)chromen-2-yl]phenoxy]ethyl]pyrrolidine-3-carboxylic acid], the pIC50 in experiment [1] is 5.14; in experiment [2], 7.30.
`O=C(O)[C@@H]1CCN(CCOCCOc2cc(Br)ccc2-c2cc(=O)c3cccc(Cl)c3o2)C1` [Example 047, (3R)-1-[2-[2-[5-bromo-2-(8-chloro-4-oxo-chromen-2-yl)phenoxy]ethoxy]ethyl]pyrrolidine-3-carboxylic acid]: the pIC50 was 5.55 in experiment [1] and 6.00 in experiment [2].
In the case of `O=C(O)C1CN(CCOCCOc2cc(Br)ccc2-c2cc(=O)c3cccc(Cl)c3o2)CCO1` (stereo not shown) [Example 049, 4-[2-[2-[5-bromo-2-(8-chloro-4-oxo-chromen-2-yl)phenoxy]ethoxy]ethyl]morpholine-2-carboxylic acid], the pIC50 is 5.11 in experiment [1] and 5.55 in experiment [2].
As for `O=C(O)C1COCCN1CCOc1cc(Br)ccc1-c1cc(=O)c2cccc(Cl)c2o1` (stereo not shown) [Example 052, 4-[2-[5-bromo-2-(8-chloro-4-oxo-chromen-2-yl)phenoxy]ethyl]morpholine-3-carboxylic acid], the results for the pIC50 in experiment [1] and in experiment [2] were 5.24 and 7.10, respectively.
For the compound `CS(=O)(=O)NC(=O)[C@@H]1CCN(CCOc2cc(Br)ccc2-c2cc(=O)c3cccc(Cl)c3o2)C1` [Example 064, (3R)-1-[2-[5-bromo-2-(8-chloro-4-oxo-chromen-2-yl)phenoxy]ethyl]-N-methylsulfonyl-pyrrolidine-3-carboxamide], the pIC50 in experiment [1] was 5.19; in experiment [2] it was 7.10.
In the case of `CS(=O)(=O)NC(=O)[C@H]1CCN(CCCOc2cc(C(F)(F)F)ccc2-c2cc(=O)c3cccc(Cl)c3o2)C1` [Example 066, (3S)-1-[3-[2-(8-chloro-4-oxo-chromen-2-yl)-5-(trifluoromethyl)phenoxy]propyl]-N-methylsulfonyl-pyrrolidine-3-carboxamide], the pIC50 in experiment [1] is 5.04; in experiment [2] it was 5.55.
As for `CS(=O)(=O)NC(=O)C1CCCN1CCOc1cc(C(F)(F)F)ccc1-c1cc(=O)c2cccc(Cl)c2o1` (stereo not shown) [Example 073, 1-[2-[2-(8-chloro-4-oxo-chromen-2-yl)-5-(trifluoromethyl)phenoxy]ethyl]-N-methylsulfonyl-pyrrolidine-2-carboxamide], the pIC50 in experiment [1] was 5.13; in experiment [2], 6.85.
In the case of `O=C1CCCN1CCOc1cc(Br)ccc1-c1cc(=O)c2cccc(Cl)c2o1` [Example 075, 1-[2-[5-bromo-2-(8-chloro-4-oxo-chromen-2-yl)phenoxy]ethyl]pyrrolidin-2-one], the values for the pIC50 in experiment [1] and in experiment [2] were 5.45 and 6.96, respectively.
For `CN(C1CCN(CCOc2cc(Br)ccc2-c2cc(=O)c3cccc(Cl)c3o2)C1)S(C)(=O)=O` (stereo not shown) [Example 076, N-[1-[2-[5-bromo-2-(8-chloro-4-oxo-chromen-2-yl)phenoxy]ethyl]pyrrolidin-3-yl]-N-methyl-methanesulfonamide] the same measures were 5.10 and 5.79.
Regarding `O=c1cc(-c2ccc(C(F)(F)F)cc2OCCCN2C[C@@H](O)[C@@H](O)C2)oc2c(Cl)cccc12` [Example 077, 8-chloro-2-[2-[3-[(3R,4S)-3,4-dihydroxypyrrolidin-1-yl]propoxy]-4-(trifluoromethyl)phenyl]chromen-4-one], the pIC50 in experiment [1] is 5.66; in experiment [2], 7.30.
In the case of `NS(=O)(=O)CCNCCCOc1cc(C(F)(F)F)ccc1-c1cc(=O)c2cccc(Cl)c2o1` [Example 080, 2-[3-[2-(8-chloro-4-oxo-chromen-2-yl)-5-(trifluoromethyl)phenoxy]propylamino]ethanesulfonamide], the pIC50 in experiment [1] was 5.40; in experiment [2], 5.50.
For `CC(=O)N1CCN(CCOc2cc(Br)ccc2-c2cc(=O)c3cccc(Cl)c3o2)CC1` [Example 082] the same measures were 5.12 and 6.62.
`CS(=O)(=O)C1CCN(CCOc2cc(Br)ccc2-c2cc(=O)c3cccc(Cl)c3o2)C1` (stereo not shown) [Example 084]: the pIC50 was 5.46 in experiment [1] and 6.23 in experiment [2].
In the case of `O=c1cc(-c2ccc(Br)cc2OCCN2CCC(c3nnn[nH]3)CC2)oc2c(Cl)cccc12` [Example 087], the pIC50 is 5.11 in experiment [1] and 5.28 in experiment [2].
For `CS(=O)(=O)C1CCN(CCCOc2cc(C(F)(F)F)ccc2-c2cc(=O)c3cccc(Cl)c3o2)C1` (stereo not shown) [Example 088, 8-chloro-2-[2-[3-(3-methylsulfonylpyrrolidin-1-yl)propoxy]-4-(trifluoromethyl)phenyl]chromen-4-one] the same measures were 5.11 and 6.57.
`O=c1cc(-c2ccc(Br)cc2OCCN2CCS(=O)(=O)CC2)oc2c(Cl)cccc12` [Example 089, 2-[4-bromo-2-[2-(1,1-dioxo-1,4-thiazinan-4-yl)ethoxy]phenyl]-8-chloro-chromen-4-one]: the negative-log IC50 (pIC50) in experiment [1] was 5.24; in experiment [2] it was 5.71.
As for `C[S+]([O-])C1CCN(CCOc2cc(C(F)(F)F)ccc2-c2cc(=O)c3cccc(Cl)c3o2)CC1` (stereo not shown) [Example 093, 8-chloro-2-[2-[2-(4-methylsulfinyl-1-piperidyl)ethoxy]-4-(trifluoromethyl)phenyl]chromen-4-one], the results for the negative-log IC50 (pIC50) in experiment [1] and in experiment [2] were 5.21 and 5.22, respectively.
Regarding `CC(=O)NCCCOc1cc(C(F)(F)F)ccc1-c1cc(=O)c2cccc(Cl)c2o1` [Example 098], the pIC50 is 5.20 in experiment [1] and 5.36 in experiment [2].
In the case of `CCOC(=O)C(=O)NCCOc1cc(C(F)(F)F)ccc1-c1cc(=O)c2cccc(Cl)c2o1` [Example 101, ethyl 2-[2-[2-(8-chloro-4-oxo-chromen-2-yl)-5-(trifluoromethyl)phenoxy]ethylamino]-2-oxo-acetate], the figures for the pIC50 in experiment [1] and in experiment [2] were 5.85 and 5.97, respectively.
On the same counts, the results for `COc1cc(Cl)c2oc(-c3ccc(C(F)(F)F)cc3OCCCNC(=O)C(=O)O)cc(=O)c2c1` [Example 116] are 5.47 and 5.74.
Regarding `O=C(O)C(=O)NCCCOc1cc(C(F)(F)F)ccc1-c1cc(=O)c2cccc(Cl)c2o1` [Example 117], the negative-log IC50 (pIC50) in experiment [1] was 5.72; in experiment [2], 5.67.
In the case of `O=C(O)C(=O)NCCOc1cc(C(F)(F)F)ccc1-c1cc(=O)c2cccc(Cl)c2o1` [Example 119, 2-[2-[2-(8-chloro-4-oxo-chromen-2-yl)-5-(trifluoromethyl)phenoxy]ethylamino]-2-oxo-acetic acid], the negative-log IC50 (pIC50) in experiment [1] is 6.17; in experiment [2], 5.46.
`O=C(O)CNCCCOc1cc(C(F)(F)F)ccc1-c1cc(=O)c2cccc(Cl)c2o1` [Example 125, 2-[3-[2-(8-chloro-4-oxo-chromen-2-yl)-5-(trifluoromethyl)phenoxy]propylamino]acetic acid]: the values for the pIC50 in experiment [1] and in experiment [2] were 5.50 and 5.69, respectively.
Take `O=C(O)C(=O)N1CC[C@H](Oc2cc(C(F)(F)F)ccc2-c2cc(=O)c3cccc(Cl)c3o2)C1` [Example 126, 2-oxo-2-[(3S)-3-[2-(8-chloro-4-oxo-chromen-2-yl)-5-(trifluoromethyl)phenoxy]pyrrolidin-1-yl]acetic acid]: the pIC50 was 5.38 in experiment [1] and 6.04 in experiment [2].
As to `O=C(O)C1CC(N2CCC(Oc3cc(Br)ccc3-c3cc(=O)c4cccc(Cl)c4o3)CC2)C1` (stereo not shown) [Example 131], the negative-log IC50 (pIC50) is 5.30 in experiment [1] and 5.23 in experiment [2].
